Reference: article PMC9993459, “A novel selective spleen tyrosine kinase inhibitor SKI-O-703 (cevidoplenib) ameliorates lupus nephritis and serum-induced arthritis in murine models” (Clinical and Experimental Immunology, 2022)

What was measured:
Jak2 = Jak2 (Homo sapiens, UniProt O60674); experiment: Kinase assay (LANCE Ultra TR-FRET), Jak2; format: biochemical
Description: (§1) Kinase assays were conducted in 384-well plates using LANCE ultra 66 time-resolved fluorescence resonance energy transfer (TR-FRET) methods, according to the manufacturer’s instructions (Perkin-Elmer). In brief, each kinase was pre-incubated with a serially diluted compound for 30 min, incubated with ULight poly-GT peptide substrate and ATP for up to 1 h. Thirty minutes after adding Eu-labeled anti-phosphopeptides Ab diluted in LANCE Detection Buffer, LANCE signals were measured with an EnVision multilabel reader (Perkin-Elmer).

Jak3 = Jak3 (Homo sapiens, UniProt P52333); experiment: Kinase assay (LANCE Ultra TR-FRET), Jak3; format: biochemical
Jak3, sequence (P52333 whole entry, species assumed): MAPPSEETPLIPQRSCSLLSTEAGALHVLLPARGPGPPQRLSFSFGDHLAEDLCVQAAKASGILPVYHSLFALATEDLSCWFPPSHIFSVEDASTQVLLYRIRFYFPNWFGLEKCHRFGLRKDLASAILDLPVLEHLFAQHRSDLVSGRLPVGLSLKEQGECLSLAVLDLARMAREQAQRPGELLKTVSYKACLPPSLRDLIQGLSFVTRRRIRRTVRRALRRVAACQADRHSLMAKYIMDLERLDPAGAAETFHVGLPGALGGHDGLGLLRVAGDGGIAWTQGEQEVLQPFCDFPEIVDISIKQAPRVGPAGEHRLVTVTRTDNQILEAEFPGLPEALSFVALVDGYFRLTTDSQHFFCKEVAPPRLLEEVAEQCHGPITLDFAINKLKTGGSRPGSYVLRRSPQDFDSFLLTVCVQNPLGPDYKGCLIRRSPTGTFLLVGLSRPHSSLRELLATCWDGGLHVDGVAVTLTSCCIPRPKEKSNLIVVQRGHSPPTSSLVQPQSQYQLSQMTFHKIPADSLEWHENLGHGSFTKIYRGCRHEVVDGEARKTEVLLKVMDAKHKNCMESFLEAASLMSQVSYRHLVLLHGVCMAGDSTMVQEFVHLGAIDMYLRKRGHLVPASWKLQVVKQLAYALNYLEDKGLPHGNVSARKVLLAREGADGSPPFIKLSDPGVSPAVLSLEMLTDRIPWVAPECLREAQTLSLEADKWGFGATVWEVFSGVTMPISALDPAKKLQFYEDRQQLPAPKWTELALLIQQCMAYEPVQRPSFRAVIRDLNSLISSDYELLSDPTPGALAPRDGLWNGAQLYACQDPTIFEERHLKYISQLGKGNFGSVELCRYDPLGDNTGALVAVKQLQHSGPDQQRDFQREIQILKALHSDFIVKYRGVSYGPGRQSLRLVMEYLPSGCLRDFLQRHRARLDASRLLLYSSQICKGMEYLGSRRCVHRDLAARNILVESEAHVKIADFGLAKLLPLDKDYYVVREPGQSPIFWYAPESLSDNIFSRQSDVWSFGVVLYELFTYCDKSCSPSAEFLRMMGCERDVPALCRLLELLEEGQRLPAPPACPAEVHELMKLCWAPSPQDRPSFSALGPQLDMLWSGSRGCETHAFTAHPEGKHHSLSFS
Description: as §1

FGFR3 = FGFR3 (Homo sapiens, UniProt P22607); experiment: Kinase assay (LANCE Ultra TR-FRET), FGFR3; format: biochemical
FGFR3, sequence (P22607 23-806, species assumed): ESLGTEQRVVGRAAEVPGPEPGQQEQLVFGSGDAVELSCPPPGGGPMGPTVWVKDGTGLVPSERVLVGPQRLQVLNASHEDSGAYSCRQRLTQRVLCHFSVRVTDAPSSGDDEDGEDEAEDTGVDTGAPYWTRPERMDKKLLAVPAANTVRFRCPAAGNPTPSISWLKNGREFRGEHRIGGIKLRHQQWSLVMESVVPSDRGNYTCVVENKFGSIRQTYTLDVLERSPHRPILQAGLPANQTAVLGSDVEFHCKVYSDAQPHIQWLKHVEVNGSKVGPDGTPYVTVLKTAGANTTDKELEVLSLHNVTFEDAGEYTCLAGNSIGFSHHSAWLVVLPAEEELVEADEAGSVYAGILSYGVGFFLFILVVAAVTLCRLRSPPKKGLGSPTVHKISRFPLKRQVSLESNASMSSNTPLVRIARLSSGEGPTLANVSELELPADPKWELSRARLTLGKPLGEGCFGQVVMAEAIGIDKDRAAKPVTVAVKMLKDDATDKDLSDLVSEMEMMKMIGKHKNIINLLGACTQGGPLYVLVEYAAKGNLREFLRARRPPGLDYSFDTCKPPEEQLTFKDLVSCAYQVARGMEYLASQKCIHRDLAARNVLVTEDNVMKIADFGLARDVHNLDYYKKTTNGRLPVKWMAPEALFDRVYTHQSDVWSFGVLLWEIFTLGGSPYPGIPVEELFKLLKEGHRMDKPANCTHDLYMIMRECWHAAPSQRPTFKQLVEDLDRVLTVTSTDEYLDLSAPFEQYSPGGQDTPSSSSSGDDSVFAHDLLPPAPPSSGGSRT
Description: as §1

mouse primary B cells [1] = experiment: CP670-dilution proliferation assay, LPS-stimulated B cells; format: cell-based; conditions: 72 h
Description: (§2) Splenic CD19^+ B cells from C57BL/6 mice were sorted by MACS (Milteny Biotec), stained with 3 μM cell proliferation dye eFluor 670 (CP670; eBioscience), and cultured for 72 h in the presence of either 10 μg/ml LPS (Sigma Aldrich) or 5 μg/ml anti-mouse IgM (Jackson Immuno Research Laboratories), 10 μg/ml anti-CD40 mAb (Biolegend) and 10 ng/ml IL-4 (Peprotech), and assayed by FACS. To detect apoptotic cells, unstimulated cells were cultured for 24 h, stained with Annexin V and 7-aminoactinomycin D (7-AAD), and assayed by FACS.
(§3) Figure 2: in vitro effects of SKI-O -703 on the proliferation, survival, and differentiation of B cells. Mouse primary B cells were labeled with CP670, and stimulated with either anti-IgM mAb, CD40L and IL-4 (A) or LPS (B) for 72 h in the presence or absence of SKI-O-703 and tofacitinib at the indicated concentrations; they were then assayed by FACS. (C and D) Mouse primary B cells were cultured as in A and B for 24 h, stained with Annexin V and 7-AAD, and assayed by FACS. Representative FACS profiles and graphs displaying mean Annexin V-positivity are shown. (E) Human primary B cells were stimulated with CpG ODN plus IL-2 (to detect IgM and IgG) or CpG ODN 2006 plus IFN-α (to detect IL-6) in the presence or absence of inhibitors. The culture supernatants were assayed by ELISA. Graphs are expressed as % positivity relative to the controls (without inhibitor). […]

mouse primary B cells [2] = experiment: Annexin V/7-AAD apoptosis assay in B cells; format: cell-based; conditions: 24 h, effect more potent with anti-IgM than LPS
Description: as §2, §3

BALB/c mice = experiment: K/BxN serum-transferred arthritis (KSTA) in BALB/c mice; format: in vivo, mouse
Description: Arthritogenic serum was collected from 8-to-15-week-old K/BxN mice. Eight-week-old male BALB/c mice were injected intraperitoneally (ip) with 100 μl of K/BxN serum to induce arthritis. The mice were treated orally twice daily with 42 or 84 mpk of SKI-O-703 from that day for 9 days. In some experiments, mice were injected ip every 2 days with 400 μg/mouse of the TNF blocker, etanercept (Amgen). Ankle thickness was measured, and arthritic index was determined daily, as described previously. On day 9 post-induction, spleens and draining (inguinal and axillary) lymph nodes (LNs) were removed post mortem and assayed by histopathological and immunologic methods.
Hind paws were removed from KSTA mice, fixed, and decalcified in 5.5% EDTA in phosphate-buffered formalin. The paws were embedded in paraffin, sectioned, and stained with hematoxylin and eosin (H&E). Arthritic changes in the ankle and foot were scored (0–4 scale) and expressed as a histopathologic index, as described previously. Safranine O-stained sections were scored (0–4 scale) and expressed as the score for cartilage erosion, as described.
Single-cell suspensions of spleen and LN cells were prepared as previously described. Joint tissues from hind paws of KSTA mice were dissected free of soft tissue and bones, digested with 100 μg/ml Liberase (Roche) for 45 min at 37 °C, and filtered through a 70-μm-pore cell strainer (SPL Life Sciences) to prepare single cell suspensions of synovial infiltrates. The single cell suspensions were stained with an appropriate combination of mAbs and analyzed by FACS. The mAbs used were: CD138-PE, B220-PerCP or -APC-cy7, FAS-PE, CD19-PerCP or -APC, CD21-FITC or -APC, CD43-APC, CD23-PE-cy7, CD8a-PE, CD25-APC-cy7, CXCR5-biotin, GL7-FITC, CD45.2-FITC, CD27-FITC, Ki-67-FITC, Gr-1-FITC, CD4-FITC or -APC-cy7, phospho-Syk-PE, CD11b-PE or -PerCP, PD-1-APC, CD44-APC-cy7, and F4/80-PerCP mAbs (all from BD Biosciences, eBioscience or Biolegend). Streptavidin-PerCP was purchased from BD Biosciences.

Jak2, sequence (O60674 whole entry, species assumed): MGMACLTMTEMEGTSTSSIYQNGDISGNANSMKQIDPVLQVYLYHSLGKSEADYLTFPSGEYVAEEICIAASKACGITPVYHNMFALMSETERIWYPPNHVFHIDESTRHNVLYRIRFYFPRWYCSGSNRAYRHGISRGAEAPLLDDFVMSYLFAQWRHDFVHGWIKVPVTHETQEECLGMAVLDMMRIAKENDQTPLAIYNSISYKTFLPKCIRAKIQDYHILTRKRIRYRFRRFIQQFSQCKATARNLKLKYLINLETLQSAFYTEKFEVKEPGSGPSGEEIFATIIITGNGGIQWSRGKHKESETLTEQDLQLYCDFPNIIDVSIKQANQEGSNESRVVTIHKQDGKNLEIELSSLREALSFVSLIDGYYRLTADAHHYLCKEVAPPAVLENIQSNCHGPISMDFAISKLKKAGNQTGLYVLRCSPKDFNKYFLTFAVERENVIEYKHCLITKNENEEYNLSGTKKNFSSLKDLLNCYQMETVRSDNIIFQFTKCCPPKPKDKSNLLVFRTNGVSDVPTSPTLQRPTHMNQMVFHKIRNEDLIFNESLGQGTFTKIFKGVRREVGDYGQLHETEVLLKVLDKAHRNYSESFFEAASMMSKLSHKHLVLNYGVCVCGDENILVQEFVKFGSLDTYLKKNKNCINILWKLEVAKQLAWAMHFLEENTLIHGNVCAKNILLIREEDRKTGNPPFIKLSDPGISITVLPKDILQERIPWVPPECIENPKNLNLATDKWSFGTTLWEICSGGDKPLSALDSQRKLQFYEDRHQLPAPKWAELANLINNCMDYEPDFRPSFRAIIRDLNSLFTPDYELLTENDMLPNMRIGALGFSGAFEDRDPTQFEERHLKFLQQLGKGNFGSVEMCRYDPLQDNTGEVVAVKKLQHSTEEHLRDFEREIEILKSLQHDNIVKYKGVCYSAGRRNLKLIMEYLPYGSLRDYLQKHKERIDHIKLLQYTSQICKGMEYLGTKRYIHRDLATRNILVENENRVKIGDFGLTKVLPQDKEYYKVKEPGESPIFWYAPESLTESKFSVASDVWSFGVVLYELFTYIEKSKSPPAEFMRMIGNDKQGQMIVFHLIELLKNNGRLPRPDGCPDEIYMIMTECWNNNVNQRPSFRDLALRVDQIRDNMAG

SMILES | Ratio to Syk (Jak2) (Jak2; IC50 ratio to Syk) | IC50 (Jak2; kinase activity, TR-FRET) [µM] | Ratio to Syk (Jak3) (Jak3; IC50 ratio to Syk) | IC50 (Jak3; kinase activity, TR-FRET) [µM] | Ratio to Syk (FGFR3) (FGFR3; IC50 ratio to Syk) | IC50 (FGFR3; kinase activity, TR-FRET) [µM] | Concentration required to significantly inhibit LPS-induced proliferation (mouse primary B cells [1]) | Proportions of early and late apoptotic B cells (mouse primary B cells [2]) | Ankle thickness and arthritic index (BALB/c mice; 42 mpk (lower dose) oral twice daily for 9 days) | Progression of KSTA (ankle thickness, arthritic index, inflammatory cell infiltration) (BALB/c mice; 42 mpk SKI-O-703 combined with TNF blocker etanercept, synergistic) | Ankle thickness and arthritic index (BALB/c mice; 84 mpk oral twice daily for 9 days) | Numbers of whole immune cells (CD45+) infiltrated into synovial tissue (BALB/c mice; 84 mpk, mainly neutrophils and macrophages) | Histopathologic index and cartilage erosion score (BALB/c mice; high dose (84 mpk), day 9) | Joint-draining LN total cells, B cells and GC B cells (BALB/c mice; high dose, day 9, lymphadenopathy disappeared) | Progression of KSTA (BALB/c mice; suboptimal dose 42 mpk, alone)
Cc1nn(-c2ccnc(Nc3ccc4c(c3)c(C(=O)C3CC3)cn4C)n2)cc1CN1C[C@H](O)CO1 [SKI-O-592] | 302 | 1.86 | 943 | 5.81 | 919 | 5.66 | – | – | – | – | – | – | – | – | –
CS(=O)(=O)O.CS(=O)(=O)O.Cc1nn(-c2ccnc(Nc3ccc4c(c3)c(C(=O)C3CC3)cn4C)n2)cc1CN1C[C@H](O)CO1 [SKI-O-703, (S)-cyclopropyl(5-((4-(4-((4-hydroxyisoxazolidin-2-yl)methyl)-3-methyl-1H-pyrazol-1-yl)pyrimidin-2-yl)amino)-1-methyl-1H-indol-3-yl)methanone dimesylate] | – | – | – | – | – | – | at least 5 μM | increased the proportions of early and late apoptotic cells | the reduction was less pronounced | significantly suppressed disease progression | dramatically reduced to the basal level | significantly reduced | significantly reduced | significantly reduced numbers | did not significantly inhibit progression of KSTA
